The values below come from paper PMC7533260, “Design and tests of prospective property predictions for novel antimalarial 2-aminopropylaminoquinolones” (Journal of Computer-Aided Molecular Design, 2020).

The structures appear in SMILES notation.

One assay deals with T1, s-PfDHODH (Plasmodium falciparum, UniProt Q08210).
T1 sequence (Q08210 158-569 limits assumed): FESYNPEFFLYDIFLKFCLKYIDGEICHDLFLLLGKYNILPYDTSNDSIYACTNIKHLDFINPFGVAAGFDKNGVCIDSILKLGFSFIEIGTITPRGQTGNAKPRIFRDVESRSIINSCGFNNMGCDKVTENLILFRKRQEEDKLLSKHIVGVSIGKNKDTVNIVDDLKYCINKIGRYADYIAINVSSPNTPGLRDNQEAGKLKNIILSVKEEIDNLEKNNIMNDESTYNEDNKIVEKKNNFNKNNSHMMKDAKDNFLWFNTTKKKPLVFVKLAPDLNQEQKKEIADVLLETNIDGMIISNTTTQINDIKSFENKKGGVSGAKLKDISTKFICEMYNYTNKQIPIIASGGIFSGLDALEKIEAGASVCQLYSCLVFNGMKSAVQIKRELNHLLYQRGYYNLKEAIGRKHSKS
Test: not given
On the set-up: method as in earlier work. The conditions noted are these: literature data used to construct QSAR models; cited from earlier work.
Take `N#C/C(C(=O)Nc1ccc(C(F)(F)F)cc1)=C(/O)C1CC1` [Compound D04]: the half-inhibitory concentration (IC50) (usually the point on the concentration scale where inhibition reaches its midpoint) is 92500 nM.
On to `C/C(O)=C(/C#N)C(=O)Nc1ccc(-c2ccccc2)cc1` [Compound D10], for which the concentration for half-maximal inhibition (IC50) is 25700 nM.
Consider `C/C(O)=C(/C#N)C(=O)Nc1ccc(-c2ccccc2Cl)cc1Cl` [Compound D17], for which the 50% inhibitory concentration (IC50) is 4000 nM.
On to `C/C(O)=C(\C#N)C(=O)Nc1ccc(-c2ccccc2Cl)cc1C(F)(F)F` [Compound D18], for which the IC50 is 6200 nM.
In the case of `COc1ccccc1-c1ccc(NC(=O)/C(C#N)=C(\C)O)c(Cl)c1` [Compound D19], the IC50 is 8600 nM.
Take `C/C(O)=C(/C#N)C(=O)Nc1ccc(-c2cccc(Cl)c2Cl)cc1Cl` [Compound D20]: the 50% inhibitory concentration (IC50) was 9900 nM.
With `C/C(O)=C(/C#N)C(=O)Nc1ccc(-c2c(Cl)cccc2Cl)cc1Cl` [Compound D21], the half-inhibitory concentration (IC50) is 10200 nM.
With `C/C(O)=C(/C#N)C(=O)Nc1ccc(-c2cccc(Cl)c2)cc1Cl` [Compound D22], the IC50 was 49100 nM.
Regarding `C/C(O)=C(\C#N)C(=O)Nc1ccc(-c2cccc(Cl)c2)cc1C(F)(F)F` [Compound D23], the 50% inhibitory concentration (IC50) was 57200 nM.
With `C/C(O)=C(/C#N)C(=O)Nc1ccc(-c2ccccc2Cl)c(Cl)c1` [Compound D24], the IC50 is 165000 nM.
On to `C/C(O)=C(/C#N)C(=O)Nc1ccc(-c2cccc(Cl)c2)c(Cl)c1` [Compound D25], for which the IC50 was 237000 nM.

Another assay has as its target T1, s-PfDHODH. The assay is described as follows: Literature inhibition data for soluble recombinant PfDHODH (s-PfDHODH), dodecylubiquinone as substrate. Format: biochemical.
Settings: not given
An excerpt:
Data on PfDHODH inhibition were collected from the literature for a structurally diverse group of compounds. These included triazolopyrimidines, diphenylureas, and 2-cyano-3-hydroxy acrylanilides, among others. Quantitative data were not available for inhibition of the intact enzyme, which is bound to the mitochondrial membrane by its hydrophobic N-terminus in vivo [16]. […] The very low solubility of CoQ-10 limits its utility in vitro, so an artificial ubiquinone (dodecylubiquinone [DQ]) is usually used as substrate instead.
The IC50 data for these 89 compounds were converted to inhibition constants (Ki’s) by assuming competitive inhibition against DQ and applying the method described by Cheng and Prusoff. Two artificial neural network ensemble (ANNE) regression models were constructed (henceforth referred to as Model A and Model B) using ADMET Modeler™ module of ADMET Predictor® [18]. The models were built on distinct 20% hold-out test sets (see Supplementary Methods for details).
Turning to `O=C(Nc1ccc(Cl)cc1Cl)c1ccc2ccccc2c1` [Compound B01], the Ki (in general, a dissociation constant, usually derived from enzyme kinetics or from competition with a known ligand) stood at 30 nM.
On the same count and under the same terms, in the case of `O=C(Nc1ccccc1F)c1ccc2ccccc2c1` [Compound B03] it was 200 nM; in that of `Cc1c(C(=O)Nc2cccc(Br)c2)cccc1[N+](=O)[O-]` [Compound B04], 20 nM; in that of `Cc1c(C(=O)Nc2ccc(F)c(Cl)c2)cccc1[N+](=O)[O-]` [Compound B05], 40 nM.
The same measure, in the same setting: with `Cc1c(C(=O)Nc2ccc(F)c(F)c2)cccc1[N+](=O)[O-]` [Compound B07] the figure was 140 nM; with `Cc1c(C(=O)Nc2cccc3ccccc23)cccc1[N+](=O)[O-]` [Compound B08], 30 nM; with `Cc1c(C(=O)Nc2ccc(Cl)c(Cl)c2)cccc1[N+](=O)[O-]` [Compound B09], 40 nM.
On the same count and under the same terms, with `Cc1c(C(=O)Nc2cccc(C(F)(F)F)c2)cccc1[N+](=O)[O-]` [Compound B10] the figure was 40 nM; with `O=C(Nc1ccccc1C(F)(F)F)Nc1cccc2ccccc12` [Compound B11], 180 nM.
For the compound `COc1ccccc1NC(=O)Nc1cccc2ccccc12` [Compound B12], the Ki came out at 120 nM.
Still for that read-out and setting: with `O=C(Nc1ccc(Cl)cc1)Nc1cccc2cccnc12` [Compound B13] the figure was 540 nM; with `C/C(O)=C(/C#N)C(=O)Nc1ccc(-c2ccccc2)cc1` [Compound D10], 3000 nM.
As to `C/C(O)=C(/C#N)C(=O)Nc1ccc(-c2c(Cl)cccc2Cl)cc1Cl` [Compound D21], the inhibition constant (Ki) was 1200 nM.
The same measure, in the same setting: in the case of `C/C(O)=C(\C#N)C(=O)Nc1ccc(-c2cccc(Cl)c2)cc1C(F)(F)F` [Compound D23] it was 6800 nM; in that of `C/C(O)=C(/C#N)C(=O)Nc1ccc(-c2ccccc2Cl)c(Cl)c1` [Compound D24], 20500 nM; in that of `Cc1cc(Nc2ccc(C#N)c(C(F)(F)F)c2)n2ncnc2n1` [Compound G45], 1960 nM.
Consider `CCCNC(=O)c1ccc(-n2c(C)cc3ccccc32)s1` [Compound P03], for which the Ki stood at 20 nM.
Same read-out and setting: in the case of `CCCNC(=O)c1ccc(-n2ccc3ccccc32)s1` [Compound P06] it was 200 nM.
Same read-out and setting: in the case of `CCOC(=O)C(=CNc1ccc2sc3ccccc3c2c1)C(=O)OCC` [He05] it was 20 nM; in that of `CCOC(=O)/C(C#N)=C\Nc1ccc2c(c1)c1ccccc1n2CC` [He06], 50 nM.
Still for that read-out and setting: with `CCOC(=O)C(=CNc1ccc(C)cc1)C(=O)OCC` [He08] the figure was 4600 nM; with `CCOC(=O)C(=CNc1ccccc1C)C(=O)OCC` [He09], 39700 nM; with `CCOC(=O)C(=CNc1ccc2[nH]cnc2c1)C(=O)OCC` [He10], 40200 nM.
As to `CCOC(=O)C(=CNc1cccc(-c2ccccc2)c1)C(=O)OCC` [He14], the inhibition constant (Ki) came out at 10000 nM.
Turning to `Cc1cc(Nc2ccc(C(N)=O)cc2)n2ncnc2n1` [Tz13], the Ki was 80000 nM.
On the same count and under the same terms, with `Cc1cc(Nc2ccccc2)n2ncnc2n1` [Tz19] the figure was 40000 nM; with `Cc1cc(Nc2ccc3cc4ccccc4cc3c2)n2ncnc2n1` [Tz20], 20 nM.

The assay is the same for the next values; noted with them: converted from literature IC50 assuming competitive inhibition against DQ (Cheng and Prusoff); read-out: PfDHODH Ki.
`Cc1c(C(=O)Nc2cc(Cl)cc(Cl)c2)cccc1[N+](=O)[O-]` [Compound B06]: the inhibition constant Ki is 10 nM.
Turning to `N#C/C(C(=O)Nc1ccc(C(F)(F)F)cc1)=C(/O)C1CC1` [Compound D04], the inhibitory constant (Ki) was found to be 11000 nM.
On the same count and under the same terms, with `C/C(O)=C(/C#N)C(=O)Nc1ccc(-c2ccccc2Cl)cc1Cl` [Compound D17] the figure was 480 nM; with `C/C(O)=C(\C#N)C(=O)Nc1ccc(-c2ccccc2Cl)cc1C(F)(F)F` [Compound D18], 730 nM; with `COc1ccccc1-c1ccc(NC(=O)/C(C#N)=C(\C)O)c(Cl)c1` [Compound D19], 1000 nM.
For the compound `C/C(O)=C(/C#N)C(=O)Nc1ccc(-c2cccc(Cl)c2Cl)cc1Cl` [Compound D20], the inhibitory constant (Ki) was 1200 nM.
With `C/C(O)=C(/C#N)C(=O)Nc1ccc(-c2cccc(Cl)c2)cc1Cl` [Compound D22], the Ki was 5800 nM.
Still for that read-out and setting: in the case of `C/C(O)=C(/C#N)C(=O)Nc1ccc(-c2cccc(Cl)c2)c(Cl)c1` [Compound D25] it was 28000 nM.
For the compound `Cc1cc(Nc2cccc(F)c2)n2ncnc2n1` [Compound G13], the Ki came to 3680 nM.
Still for that read-out and setting: in the case of `Cc1cc(Nc2cccc(Cl)c2)n2ncnc2n1` [Compound G14] it was 560 nM; in that of `Cc1cccc(Nc2cc(C)nc3ncnn23)c1` [Compound G15], 1960 nM; in that of `Cc1cc(Nc2cccc(C(F)(F)F)c2)n2ncnc2n1` [Compound G16], 5600 nM.
On the same count and under the same terms, with `Cc1cc(Nc2ccc(F)cc2)n2ncnc2n1` [Compound G17] the figure was 7600 nM; with `Cc1cc(Nc2ccc(Cl)cc2)n2ncnc2n1` [Compound G18], 640 nM.
The same measure, in the same setting: with `Cc1cc(Nc2ccc(Br)cc2)n2ncnc2n1` [Compound G19] the figure was 310 nM; with `Cc1ccc(Nc2cc(C)nc3ncnn23)cc1` [Compound G20], 1680 nM; with `COc1ccc(Nc2cc(C)nc3ncnn23)cc1` [Compound G22], 1840 nM.
Consider `Cc1cc(Nc2ccc(OC(F)(F)F)cc2)n2ncnc2n1` [Compound G23], for which the inhibition constant Ki was found to be 480 nM.
On the same count and under the same terms, in the case of `Cc1cc(Nc2ccc(OC(F)F)cc2)n2ncnc2n1` [Compound G24] it was 1120 nM; in that of `Cc1cc(Nc2ccc([N+](=O)[O-])cc2)n2ncnc2n1` [Compound G25], 1720 nM.
The same measure, in the same setting: in the case of `Cc1cc(Nc2ccc(-c3ccccc3)cc2)n2ncnc2n1` [Compound G26] it was 2120 nM; in that of `Cc1cc(Nc2ccc(Cc3ccccc3)cc2)n2ncnc2n1` [Compound G27], 880 nM; in that of `Cc1cc(Nc2ccc(F)c(F)c2F)n2ncnc2n1` [Compound G31], 11600 nM.
Same read-out and setting: in the case of `Cc1cc(Nc2cc(F)c(F)cc2F)n2ncnc2n1` [Compound G32] it was 6800 nM.
As for `Cc1ccc(Nc2cc(C)nc3ncnn23)c(F)c1` [Compound G36], the Ki was found to be 10800 nM.
Consider `Cc1cc(Nc2ccc(F)c(F)c2)n2ncnc2n1` [Compound G37], for which the Ki worked out at 3200 nM.
For `Cc1cc(Nc2cc(F)cc(F)c2)n2ncnc2n1` [Compound G38], the inhibition constant Ki worked out at 3760 nM.
Same read-out and setting: with `Cc1cc(Nc2ccc(F)c(C)c2)n2ncnc2n1` [Compound G40] the figure was 1840 nM; with `Cc1cc(Nc2ccc(Cl)c(C(F)(F)F)c2)n2ncnc2n1` [Compound G41], 320 nM.
For `Cc1cc(Nc2ccc(Br)c(C(F)(F)F)c2)n2ncnc2n1` [Compound G42], the inhibition constant (Ki) stood at 180 nM.
Still for that read-out and setting: with `Cc1cc(Nc2ccc(C)c(C(F)(F)F)c2)n2ncnc2n1` [Compound G43] the figure was 620 nM; with `Cc1cc(Nc2ccc(C)c(C)c2)n2ncnc2n1` [Compound G44], 140 nM; with `Cc1cc(Nc2ccc(C)c(F)c2)n2ncnc2n1` [Compound G46], 340 nM.
Still for that read-out and setting: with `Cc1ccccc1/C=C/c1cc(O)c2ccccc2n1` [Compound P01] the figure was 400 nM; with `CCCCCC1CCCc2c1nc1ccccc1c2O` (stereo not drawn) [Compound P02], 150 nM; with `O=C(NC1CC1)c1ccc(N2CCSc3ccccc32)s1` [Compound P04], 110 nM.
As to `CCCNC(=O)c1ccc(-n2cnc3ccccc32)s1` [Compound P10], the Ki amounted to 300 nM.
`CCCNC(=O)c1ccc(-n2c(C)nc3ccccc32)s1` [Compound P11]: the inhibition constant (Ki) amounted to 70 nM.
Same read-out and setting: with `CCOC(=O)C(=CNc1ccc2[nH]ncc2c1)C(=O)OCC` [He07] the figure was 3200 nM; with `FC(F)(F)c1cc(Nc2ccc3ccccc3c2)n2ncnc2n1` [Tz08], 80 nM.
Consider `CCc1cc(Nc2ccc3ccccc3c2)n2ncnc2n1` [Tz09], for which the Ki was found to be 80 nM.
Still for that read-out and setting: with `Cc1nc2ncnn2c(Nc2ccc3ccccc3c2)c1C` [Tz10] the figure was 60 nM; with `Cc1cc(N(C)c2ccc3ccccc3c2)n2ncnc2n1` [Tz11], 1200 nM; with `Cc1cc(N(Cc2ccccc2)c2ccc3ccccc3c2)n2ncnc2n1` [Tz12], 37200 nM.
For `Cc1cc(Nc2cnc3ccccc3c2)n2ncnc2n1` [Tz14], the inhibition constant (Ki) stood at 680 nM.
On the same count and under the same terms, with `Cc1cc(Nc2ccc3ncccc3c2)n2ncnc2n1` [Tz15] the figure was 480 nM; with `Cc1cc(Nc2cc3ccccc3cc2O)n2ncnc2n1` [Tz16], 130 nM.
On the same count and under the same terms, with `Cc1cc(Nc2ccc3c(=O)cc(C)oc3c2)n2ncnc2n1` [Tz17] the figure was 800 nM.
On the same count and under the same terms, in the case of `Cc1cc(Nc2cccc3ccccc23)n2ncnc2n1` [Tz18] it was 18000 nM.
